Like-named read-outs stand apart in the source and are kept apart here.
Legend:
Bitter Taste = experiment: Bitter taste recognition threshold, trained sensory panel; assay type: in vivo, human
Method: To study the influence of the chirality of C(17) on the sensory activity of these limonoids, bitter threshold concentrations were determined for limonin and C17-epilimonin.
(§1) To make these evaluations, eleven assessors (four women and seven men, age 23-39 years), who participated for at least two years in weekly training sessions, determined taste recognition threshold concentrations in bottled water (pH 5.1) by means of a three-alternative forced-choice method with ascending concentrations of the stimulus following the procedure reported previously in Stark, T.; Barenther, S.; Hofmann, T. (2005) J. Agric. Food Chem. 53:5407-5418.

Astringency Taste = experiment: Astringency taste threshold, sensory; assay type: in vivo, human
Text: The inventors have discovered that, as with bitterness, a plurality of compounds present in orange juice below the astringency threshold contributes to the astringent mouth feel of the juice.
as §1

[1] = Non-enzymatic release of limonin from limonin-17-β-D-glucopyranoside in aqueous solution on storage (HPLC-MS/MS); assay type: physicochemical; settings: for limonin released from the glucopyranoside: up to 14 weeks in the dark; for limonin released from its precursor (yield): 14 weeks in the dark
Method: To investigate the putative non-enzymatic release of limonin from limonin-17-β-D-glucopyranoside during storage of orange juice, aqueous solutions of the glucopyranoside adjusted to the pH value of a freshly squeezed orange juice (pH 3.5) or to the range of pH values found for orange juice concentrates (pH 2.0 and 3.0) were held at 20° C. for up to 14 weeks in the dark. At regular time intervals, aliquots were withdrawn from the model solutions and analyzed for the amount of limonin liberated from the glucopyranoside by means of HPLC-MS/MS operating in the MRM mode. […] For example, 0.85% mol of limonin was released from the glucopyranoside when maintained at pH 2.0, whereas at pH 3.5 only 0.25% of the bitter compound was generated.
In order to investigate the influence of the temperature on limonin generation, aqueous solutions of the glucopyranoside adjusted to pH 3.0 were maintained at 4, 20, and 30° C. for up to 14 weeks in the dark. At regular time intervals, the amounts of limonin were determined by means of HPLC-MS/MS operating in the MRM mode. […] For example, limonin was released from its precursor in a yield of nearly 4.0% when incubated at 30° C., whereas only 0.2% of the bitter compound was detectable after storing the precursor solution at 4° C. for 14 weeks.
In particular, aqueous solutions of limonin-17-β-D-glucopyranoside (0.35 mg/L) adjusted to pH value of 2.0, 3.0, and 3.5, respectively, by adding trace amounts of hydrochloric acid (1 mol/L) were maintained at different temperatures (4, 20, 30° C.) for up to 14 weeks in closed vials in the dark. At regular time intervals, samples (5 μL) were withdrawn with a syringe and were analyzed for the generation of limonin by means of LC-MS/MS on a Synergi Fusion, 150×2 mm i.d., 4 μm column (Phenomenex). To achieve this, chromatography was performed with a flow rate of 250 μL/min starting with a mixture (80/20, v/v) of 0.1% aqueous formic acid and acetonitrile, increasing the acetonitrile content to 40% within 10 min, then to 80% within 5 min, held for 5 min, and, finally, to 100% within 5 min. Using negative electrospray ionization, limonin was analyzed in the multiple reaction monitoring (MRM) mode using the mass transition m/z 469→229. Quantitative analysis was performed by comparing the peak areas obtained for the mass trace with those of defined standard solutions of limonin in methanol.

[2] = Incubation of limonin in aqueous solution, formation of isolimonin; assay type: physicochemical; settings: pH of 3
[3] = Homo sapiens; read-out: Bitter Taste Threshold
[4] = Homo sapiens; read-out: Astringency Taste Threshold

Compound | minimal effective concentration (Bitter Taste; [3]) [µM] | minimal effective concentration (Astringency Taste; [4]) [µM] | Bitter Taste Threshold (Bitter Taste; in vivo) [µmol/L] | Astringency Taste Threshold (Astringency Taste; in vivo) [µmol/L] | also measured
COc1ccc(-c2oc3c(OC)c(OC)cc(OC)c3c(=O)c2OC)cc1OC [3,5,7,8,3′,4′-hexamethoxyflavone] | > 250 | 125 | – | – | –
CC1(C)O[C@H]2CC(=O)OC[C@]23[C@H]2CC[C@@](C)([C@@H](O[C@@H]4O[C@H](CO)[C@@H](O)[C@H](O)[C@H]4O)c4ccoc4)[C@@]4(O[C@@H]4C(=O)O)[C@]2(C)C(=O)C[C@@H]13 [Limonin-17-β-D-glucopyranoside] | – | – | 106 | 17 | limonin released from the glucopyranoside ([1]; pH 2.0, 20° C.): 0.85 % mol; limonin released from its precursor (yield) ([1]; pH 3.0, 4° C.): 0.2%; limonin released from its precursor (yield) ([1]; pH 3.0, 30° C.): ~4.0%; limonin released from the glucopyranoside ([1]; pH 3.5, 20° C.): 0.25%
COc1ccc(-c2cc(=O)c3c(OC)c(OC)c(OC)cc3o2)cc1OC [5,6,7,3′,4′-pentamethoxyflavone] | 56 | 24 | – | – | –
COc1ccc(-c2cc(=O)c3c(OC)c(OC)c(OC)c(OC)c3o2)cc1OC [5,6,7,8,3′,4′-hexamethoxyflavone] | 103 | 51 | – | – | –
C17-epilimonin [Isolimonin] | – | – | – | – | bitter threshold concentration (Bitter Taste; water; bottled water pH 5.1, three-alternative forced-choice, eleven assessors): 10.0 µg/L; Astringency Taste Threshold (Astringency Taste): 10 mg/L
COc1ccc(-c2oc3c(OC)c(OC)c(OC)c(OC)c3c(=O)c2O[C@@H]2O[C@H](CO)[C@@H](O)[C@H](O)[C@H]2O)cc1OC [5,6,7,8,3′,4′-Hexamethoxyflavone-3-O-β-D-glucopyranoside] | – | – | 78 | 20 | –
Nomilin acid β-glpc | – | – | >800 | – | –
CC1(C)O[C@H]2CC(=O)OC[C@]23[C@H]2CC[C@@]4(C)[C@H](c5ccoc5)OC(=O)[C@H]5O[C@]54[C@]2(C)C(=O)C[C@@H]13 [Limonin, reference compound] | 4 | 4 | – | – | bitter threshold concentration (Bitter Taste; bottled water pH 5.1, three-alternative forced-choice, eleven assessors): 4.0 µmol/L; times more bitter than caffeine (Bitter Taste; relative to caffeine): ~200 times; times more bitter than catechin (Bitter Taste; relative to catechin): 150 times; formation of isolimonin on incubation (direct epimerization) [2]: does not produce significant quantity of isolimonin
COc1ccc(-c2oc3cc(OC)c(OC)c(OC)c3c(=O)c2OC)cc1OC [3,5,6,7,3′,4′-hexamethoxyflavone] | 19 | 9 | – | – | –
CC1(C)OC(=O)C[C@H](O)[C@]2(C)[C@H]3CC[C@@]4(C)[C@H](c5ccoc5)OC(=O)[C@H]5O[C@]54[C@]3(C)C(=O)C[C@@H]12 [Deacetylnomilin] | – | – | >106 | 13.2 | –
COc1ccc(-c2cc(=O)c3c(OC)cc(OC)c(OC)c3o2)cc1 [5,7,8,4′-tetramethoxyflavone] | > 120 | 44 | – | – | –
Deacetylnomilinic acid-17-β-D-glucopyranoside | – | – | 68 | 27 | –
5,6,7,3′,4′-pentamethoxyflavoneglucoside | – | – | 61 | 21 | –
CC(=O)O[C@H]1CC(=O)OC(C)(C)[C@@H]2CC(=O)[C@]3(C)[C@H](CC[C@@]4(C)[C@H](c5ccoc5)OC(=O)[C@H]5O[C@]543)[C@@]12C [Nomilin] | – | – | – | – | minimal effective concentration (Bitter Taste; Homo sapiens, read-out: Bitter Taste Threshold): 13 µM; times more bitter than caffeine (Bitter Taste; relative to caffeine): ~150 times; times more bitter than catechin (Bitter Taste; relative to catechin): 45 times
5,6,7,8,3′,4′-hexamethoxyflavoneglucoside | – | – | 78 | 20 | –
COc1ccc(-c2oc3cc(OC)c(OC)c(OC)c3c(=O)c2O[C@@H]2O[C@H](CO)[C@@H](O)[C@H](O)[C@H]2O)cc1OC [5,6,7,3′,4′-pentamethoxy-flavone-3-O-β-D-glucopyranoside] | – | – | 61 | 21 | –
Obacunon β-glpc | – | – | 49 | – | –
COc1cc(-c2cc(=O)c3c(OC)c(OC)c(OC)c(OC)c3o2)ccc1O [4′-hydroxy-3′,5,6,7,8-pentamethoxyflavone] | 25 | 6 | – | – | –
COc1ccc(-c2cc(=O)c3c(OC)cc(OC)c(OC)c3o2)cc1OC [5,7,8,3′,4′-pentamethoxyflavone] | 32 | 13 | – | – | –
COc1ccc(-c2oc3c(OC)c(OC)c(OC)c(OC)c3c(=O)c2OC)cc1OC [3,5,6,7,8,3′,4′-heptamethoxyflavone] | 24 to 31 | 4 to 5 | – | – | –
COc1ccc2c(=O)cc(-c3ccc(OC)c(OC)c3)oc2c1 [7,3′,4′-trimethoxyflavone] | > 400 | 15 | – | – | –
Nomilin β-glpc | – | – | >700 | – | –
COc1ccc(-c2cc(=O)c3c(OC)c(OC)c(OC)c(OC)c3o2)cc1 [5,6,7,8,4′-pentamethoxyflavone] | 93 | 19 | – | – | –
COc1ccc(-c2cc(=O)c3ccc(OC)c(OC)c3o2)cc1OC [7,8,3′,4′-tetramethoxyflavone] | > 400 | 44 | – | – | –
Epiisoobacunoic acid 17-β-D-glucopyranoside | – | – | 42 | 16 | –
COc1ccc(-c2cc(=O)c3c(OC)c(OC)c(OC)cc3o2)cc1 [5,6,7,4′-tetramethoxyflavone] | – | – | – | – | minimal effective concentration (Astringency Taste; Homo sapiens, read-out: Astringency Taste Threshold): 31 µM

— patent publication US20090175995A1, “CONTROL OF FLAVOR CHARACTERISTICS OF AND INDICATOR OF FRESHNESS IN FRUIT JUICE” (TROPICANA PRODUCTS, INC., priority 2007, published 2009)
